Measurements reported in PubChem BioAssay (NCI).
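Briefly, cells in 96-well plates were exposed to five compound concentrations for 48 h, and endpoints were estimated by linear interpolation. TGI: total growth inhibition.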

Tests used:
Assay in all cases: inhibition of tumour cell growth, NCI panel, 48 h
786-0 renal = tested on: 786-0 renal
A549 NSCLC = tested on: A549 NSCLC
ACHN renal = tested on: ACHN renal
CAKI-1 renal = tested on: CAKI-1 renal
COLO 205 colon = tested on: COLO 205 colon
DMS 114 small cell lung = tested on: DMS 114 small cell lung
DMS 273 small cell lung = tested on: DMS 273 small cell lung
HCC-2998 colon = tested on: HCC-2998 colon
HCT-116 colon = tested on: HCT-116 colon
HCT-15 colon = tested on: HCT-15 colon
HL-60(TB) leukemia = tested on: HL-60(TB) leukemia
HOP-62 NSCLC = tested on: HOP-62 NSCLC
HOP-92 NSCLC = tested on: HOP-92 NSCLC
HT29 colon = tested on: HT29 colon
IGROV1 ovarian = tested on: IGROV1 ovarian
K-562 leukemia = tested on: K-562 leukemia
KM12 colon = tested on: KM12 colon
KM20L2 colon = tested on: KM20L2 colon
LOX IMVI melanoma = tested on: LOX IMVI melanoma
LXFL 529 NSCLC = tested on: LXFL 529 NSCLC
M14 melanoma = tested on: M14 melanoma
M19-MEL melanoma = tested on: M19-MEL melanoma
MALME-3M melanoma = tested on: MALME-3M melanoma
MOLT-4 leukemia = tested on: MOLT-4 leukemia
NCI-H226 lung = tested on: NCI-H226 lung
NCI-H23 lung = tested on: NCI-H23 lung
NCI-H460 lung = tested on: NCI-H460 lung
NCI-H522 lung = tested on: NCI-H522 lung
OVCAR-3 ovarian = tested on: OVCAR-3 ovarian
OVCAR-4 ovarian = tested on: OVCAR-4 ovarian
OVCAR-5 ovarian = tested on: OVCAR-5 ovarian
OVCAR-8 ovarian = tested on: OVCAR-8 ovarian
RPMI-8226 leukemia = tested on: RPMI-8226 leukemia
RXF 393 renal = tested on: RXF 393 renal
RXF-631 renal = tested on: RXF-631 renal
SF-268 CNS = tested on: SF-268 CNS
SF-295 CNS = tested on: SF-295 CNS
SF-539 CNS = tested on: SF-539 CNS
SK-MEL-28 melanoma = tested on: SK-MEL-28 melanoma
SK-MEL-5 melanoma = tested on: SK-MEL-5 melanoma
SK-OV-3 ovarian = tested on: SK-OV-3 ovarian
SN12C renal = tested on: SN12C renal
SNB-19 CNS = tested on: SNB-19 CNS
SNB-75 CNS = tested on: SNB-75 CNS
SNB-78 CNS = tested on: SNB-78 CNS
SR leukemia = tested on: SR leukemia
SW-620 colon = tested on: SW-620 colon
TK-10 renal = tested on: TK-10 renal
U251 CNS = tested on: U251 CNS
UACC-257 melanoma = tested on: UACC-257 melanoma
UACC-62 melanoma = tested on: UACC-62 melanoma
UO-31 renal = tested on: UO-31 renal
XF 498 CNS = tested on: XF 498 CNS
A498 renal = tested on: A498 renal
CCRF-CEM leukemia = tested on: CCRF-CEM leukemia
DLD-1 colon = tested on: DLD-1 colon
EKVX NSCLC = tested on: EKVX NSCLC
HOP-18 NSCLC = tested on: HOP-18 NSCLC
SK-MEL-2 melanoma = tested on: SK-MEL-2 melanoma

Structure (SMILES): CC1(C)C(=O)C(C)(C)C1=NNC(N)=S
- TGI (786-0 renal): > 100 µM
- TGI (A549 NSCLC): > 100 µM
- TGI (ACHN renal): > 100 µM
- TGI (CAKI-1 renal): > 100 µM
- TGI (COLO 205 colon): > 100 µM
- TGI (DMS 114 small cell lung): > 100 µM
- TGI (DMS 273 small cell lung): > 100 µM
- TGI (HCC-2998 colon): > 100 µM
- TGI (HCT-116 colon): > 100 µM
- TGI (HCT-15 colon): > 100 µM
- TGI (HL-60(TB) leukemia): > 100 µM
- TGI (HOP-62 NSCLC): > 100 µM
- TGI (HOP-92 NSCLC): > 100 µM
- TGI (HT29 colon): > 100 µM
- TGI (IGROV1 ovarian): > 100 µM
- TGI (K-562 leukemia): > 100 µM
- TGI (KM12 colon): > 100 µM
- TGI (KM20L2 colon): > 100 µM
- TGI (LOX IMVI melanoma): > 100 µM
- TGI (LXFL 529 NSCLC): > 100 µM
- TGI (M14 melanoma): > 100 µM
- TGI (M19-MEL melanoma): > 100 µM
- TGI (MALME-3M melanoma): > 100 µM
- TGI (MOLT-4 leukemia): > 100 µM
- TGI (NCI-H226 lung): > 100 µM
- TGI (NCI-H23 lung): > 100 µM
- TGI (NCI-H460 lung): > 100 µM
- TGI (NCI-H522 lung): > 100 µM
- TGI (OVCAR-3 ovarian): > 100 µM
- TGI (OVCAR-4 ovarian): > 100 µM
- TGI (OVCAR-5 ovarian): > 100 µM
- TGI (OVCAR-8 ovarian): > 100 µM
- TGI (RPMI-8226 leukemia): > 100 µM
- TGI (RXF 393 renal): > 100 µM
- TGI (RXF-631 renal): > 100 µM
- TGI (SF-268 CNS): > 100 µM
- TGI (SF-295 CNS): > 100 µM
- TGI (SF-539 CNS): > 100 µM
- TGI (SK-MEL-28 melanoma): > 100 µM
- TGI (SK-MEL-5 melanoma): > 100 µM
- TGI (SK-OV-3 ovarian): > 100 µM
- TGI (SN12C renal): > 100 µM
- TGI (SNB-19 CNS): > 100 µM
- TGI (SNB-75 CNS): > 100 µM
- TGI (SNB-78 CNS): > 100 µM
- TGI (SR leukemia): > 100 µM
- TGI (SW-620 colon): > 100 µM
- TGI (TK-10 renal): > 100 µM
- TGI (U251 CNS): > 100 µM
- TGI (UACC-257 melanoma): > 100 µM
- TGI (UACC-62 melanoma): > 100 µM
- TGI (UO-31 renal): > 100 µM
- TGI (XF 498 CNS): > 100 µM

Structure (SMILES): C[C@]12CC[C@H](O)CC1=CC[C@@H]1C2CC[C@]2(C)C(=O)NC(=O)CC12 (stereo not given in full)
- TGI (786-0 renal): > 100 µM
- TGI (A498 renal): > 100 µM
- TGI (A549 NSCLC): > 100 µM
- TGI (ACHN renal): > 100 µM
- TGI (CAKI-1 renal): > 100 µM
- TGI (CCRF-CEM leukemia): > 100 µM
- TGI (COLO 205 colon): > 100 µM
- TGI (DLD-1 colon): > 100 µM
- TGI (DMS 114 small cell lung): > 100 µM
- TGI (DMS 273 small cell lung): > 100 µM
- TGI (EKVX NSCLC): > 100 µM
- TGI (HCC-2998 colon): > 100 µM
- TGI (HCT-116 colon): > 100 µM
- TGI (HCT-15 colon): > 100 µM
- TGI (HL-60(TB) leukemia): > 100 µM
- TGI (HOP-18 NSCLC): > 100 µM
- TGI (HOP-62 NSCLC): > 100 µM
- TGI (HOP-92 NSCLC): > 100 µM
- TGI (HT29 colon): > 100 µM
- TGI (IGROV1 ovarian): > 100 µM
- TGI (K-562 leukemia): 92.1 µM
- TGI (KM12 colon): > 100 µM
- TGI (KM20L2 colon): > 100 µM
- TGI (LOX IMVI melanoma): > 100 µM
- TGI (LXFL 529 NSCLC): > 100 µM
- TGI (M14 melanoma): > 100 µM
- TGI (M19-MEL melanoma): > 100 µM
- TGI (MALME-3M melanoma): > 100 µM
- TGI (MOLT-4 leukemia): > 100 µM
- TGI (NCI-H226 lung): > 100 µM
- TGI (NCI-H23 lung): > 100 µM
- TGI (NCI-H460 lung): > 100 µM
- TGI (NCI-H522 lung): > 100 µM
- TGI (OVCAR-3 ovarian): > 100 µM
- TGI (OVCAR-4 ovarian): > 100 µM
- TGI (OVCAR-5 ovarian): > 100 µM
- TGI (OVCAR-8 ovarian): > 100 µM
- TGI (RPMI-8226 leukemia): 89.8 µM
- TGI (RXF 393 renal): > 100 µM
- TGI (RXF-631 renal): > 100 µM
- TGI (SF-268 CNS): > 100 µM
- TGI (SF-295 CNS): > 100 µM
- TGI (SF-539 CNS): > 100 µM
- TGI (SK-MEL-2 melanoma): > 100 µM
- TGI (SK-MEL-28 melanoma): > 100 µM
- TGI (SK-MEL-5 melanoma): > 100 µM
- TGI (SK-OV-3 ovarian): > 100 µM
- TGI (SN12C renal): > 100 µM
- TGI (SNB-19 CNS): > 100 µM
- TGI (SNB-75 CNS): > 100 µM
- TGI (SNB-78 CNS): > 100 µM
- TGI (SR leukemia): > 100 µM
- TGI (SW-620 colon): > 100 µM
- TGI (TK-10 renal): > 100 µM
- TGI (U251 CNS): > 100 µM
- TGI (UACC-257 melanoma): > 100 µM
- TGI (UACC-62 melanoma): > 100 µM
- TGI (UO-31 renal): > 100 µM
- TGI (XF 498 CNS): > 100 µM

Structure (SMILES): CCCCNC(=S)OCCC(C)CCCC(C)C (stereo not given)
- TGI (786-0 renal): > 100 µM
- TGI (A498 renal): > 100 µM
- TGI (A549 NSCLC): > 100 µM
- TGI (ACHN renal): > 100 µM
- TGI (CAKI-1 renal): > 100 µM
- TGI (CCRF-CEM leukemia): > 100 µM
- TGI (DLD-1 colon): > 100 µM
- TGI (DMS 114 small cell lung): > 100 µM
- TGI (DMS 273 small cell lung): > 100 µM
- TGI (EKVX NSCLC): > 100 µM
- TGI (HCC-2998 colon): > 100 µM
- TGI (HCT-116 colon): > 100 µM
- TGI (HCT-15 colon): > 100 µM
- TGI (HL-60(TB) leukemia): > 100 µM
- TGI (HOP-18 NSCLC): > 100 µM
- TGI (HOP-62 NSCLC): > 100 µM
- TGI (HT29 colon): > 100 µM
- TGI (IGROV1 ovarian): > 100 µM
- TGI (K-562 leukemia): > 100 µM
- TGI (KM12 colon): > 100 µM
- TGI (KM20L2 colon): > 100 µM
- TGI (LOX IMVI melanoma): > 100 µM
- TGI (LXFL 529 NSCLC): > 100 µM
- TGI (M14 melanoma): > 100 µM
- TGI (M19-MEL melanoma): > 100 µM
- TGI (MALME-3M melanoma): > 100 µM
- TGI (MOLT-4 leukemia): > 100 µM
- TGI (NCI-H23 lung): > 100 µM
- TGI (NCI-H460 lung): > 100 µM
- TGI (OVCAR-4 ovarian): > 100 µM
- TGI (OVCAR-5 ovarian): > 100 µM
- TGI (OVCAR-8 ovarian): > 100 µM
- TGI (RPMI-8226 leukemia): > 100 µM
- TGI (RXF 393 renal): > 100 µM
- TGI (SF-268 CNS): > 100 µM
- TGI (SF-295 CNS): > 100 µM
- TGI (SF-539 CNS): > 100 µM
- TGI (SK-MEL-2 melanoma): > 100 µM
- TGI (SK-MEL-28 melanoma): > 100 µM
- TGI (SK-MEL-5 melanoma): > 100 µM
- TGI (SK-OV-3 ovarian): > 100 µM
- TGI (SN12C renal): > 100 µM
- TGI (SNB-19 CNS): > 100 µM
- TGI (SNB-75 CNS): > 100 µM
- TGI (SNB-78 CNS): > 100 µM
- TGI (SR leukemia): > 100 µM
- TGI (SW-620 colon): > 100 µM
- TGI (TK-10 renal): > 100 µM
- TGI (U251 CNS): > 100 µM
- TGI (UACC-257 melanoma): > 100 µM
- TGI (UACC-62 melanoma): > 100 µM
- TGI (UO-31 renal): > 100 µM
- TGI (XF 498 CNS): > 100 µM
